Results: patent publication US4321271A, “Heterocyclic and aliphatic growth promotors” (Beecham Group Limited, priority 1979, dated 1982)

Test system: methanogenesis
Experiment: In vivo "gas collection screen" in sheep (respirometer): methanogenesis and hydrogen evolution
Conditions: sheep 50 kg, in diet, 75 mg/day, 5 week period
Protocol: In vivo Studies in a "gas collection screen":
A Group of 4, 50 kg Sheep were fed diets containing the compound of Example 6 over 5 week period. A different sheep from each group was put into a respirometer for 24 hours each day. Each sheep was thus monitored once in every […]. Gas flow was maintained by a peristatic pump and measured using a commercial gas meter and a sub-sample collected in a butyl-rubber inner tube. Gas analysis was carried out by gas chromatograph using a R/E 204 gas chromatograph with both electron capture and […] detectors.
During a run-in control period it was found the sheep produced 19.2±0.4 liters methane/day and not more than 1.5 liters Hydrogen/day.
The compounds were stable in the feed over the period of the study. By feeding measured amounts to the sheep (no refusals) it was possible to "dose" each sheep with 75 mg/day.

SMILES	% inhibition of methanogenesis	Hydrogen evolution
OC(CN1CCCCC1)C(Cl)(Cl)Cl (stereo not drawn) [Example 6, 1,1,1-Trichloro-3-(N-piperidino)propan-2-ol]	9.1%	2.1 liters/24h

Test system: rumen fluid
Experiment: In vitro incubation of buffered rumen fluid: volatile fatty acids, methane inhibition and hydrogen
Assay type: cell-based, sheep
Conditions: 10 ppm/flask, 20 h, 39° C, headspace gas
Protocol: The compounds were tested for their ability to reduce or inhibit methane production and to enhance propionate formation. The method used is as follows:
The screening system is in vitro incubation of buffered rumen fluid with, or without, the addition of the test compound.
Rumen fluid is removed by suction from two rumen-fistulated sheep, just before feeding. The fluid is strained and mixed. The incubation is for twenty hours in a shaking water-bath at 39° C. Each incubation flask contains: 30 ml McDougall's bicarbonate buffer-pH 6.7-6.9, 10 ml strained rumen fluid, 200 mg substrate (the substrate is a ground sample of the diet on which the sheep has been fed) and 1 ml 10% aqueous ethanol containing 0.2% Tween 80 and the compound under examination. Samples are taken at the end of the incubation period for analysis of headspace gases and volatile fatty acids, by g.l.c. […]

SMILES	% hydrogen present
OC(CN1CCCC1)C(Cl)(Cl)Cl (stereo not drawn) [Example 7, 1,1,1-Trichloro-3-(N-pyrrolidino)propan-2-ol]	1.18%
OC(CN1CCCCC1)C(Cl)(Cl)Cl (stereo not drawn) [Example 6, 1,1,1-Trichloro-3-(N-piperidino)propan-2-ol]	1.34%
CN(C)CC(O)C(Cl)(Cl)Cl (stereo not drawn) [Example 2, 1,1,1-Trichloro-3-dimethylaminopropan-2-ol]	1.61%
CN1CCN(CC(O)C(Cl)(Cl)Cl)CC1 (stereo not drawn) [Compound A, reference compound]	0.062%
CCN(CC)CC(O)C(Cl)(Cl)Cl (stereo not drawn) [Example 3, 1,1,1-Trichloro-3-diethylaminopropan-2-ol]	1.27%
OC(CNC1CCCCC1)C(Cl)(Cl)Cl (stereo not drawn) [Example 5, 1,1,1-Trichloro-3-cyclohexylaminopropan-2-ol]	1.01%
CC(C)CNCC(O)C(Cl)(Cl)Cl (stereo not drawn) [Example 4, 1,1,1-Trichloro-3-isobutylaminopropan-2-ol]	1.07%
CNCC(O)C(Cl)(Cl)Cl (stereo not drawn) [Example 1, 1,1,1-Trichloro-3-methylaminopropan-2-ol]	1.43%

Same assay, conditions: 10 ppm/flask, 20 h, 39° C, sheep rumen fluid

SMILES	Molar % VFA Acetate	Molar % VFA Butyrate	Molar % VFA Propionate	TVFA
OC(CN1CCCC1)C(Cl)(Cl)Cl (stereo not drawn) [Example 7, 1,1,1-Trichloro-3-(N-pyrrolidino)propan-2-ol]	57.7%	9.67%	30.5%	44.6 μM/ml
OC(CN1CCCCC1)C(Cl)(Cl)Cl (stereo not drawn) [Example 6, 1,1,1-Trichloro-3-(N-piperidino)propan-2-ol]	57.7%	9.64%	30.7%	45.3 μM/ml
CN(C)CC(O)C(Cl)(Cl)Cl (stereo not drawn) [Example 2, 1,1,1-Trichloro-3-dimethylaminopropan-2-ol]	55.6%	12.2%	29.7%	43.9 μM/ml
CN1CCN(CC(O)C(Cl)(Cl)Cl)CC1 (stereo not drawn) [Compound A, reference compound]	65.3%	9.13%	21.9%	56.7 μM/ml
CCN(CC)CC(O)C(Cl)(Cl)Cl (stereo not drawn) [Example 3, 1,1,1-Trichloro-3-diethylaminopropan-2-ol]	54.2%	12.4%	30.0%	43.3 μM/ml
OC(CNC1CCCCC1)C(Cl)(Cl)Cl (stereo not drawn) [Example 5, 1,1,1-Trichloro-3-cyclohexylaminopropan-2-ol]	56.7%	10.21%	31.1%	44.2 μM/ml
CC(C)CNCC(O)C(Cl)(Cl)Cl (stereo not drawn) [Example 4, 1,1,1-Trichloro-3-isobutylaminopropan-2-ol]	55.3%	12.3%	30.0%	40.1 μM/ml
CNCC(O)C(Cl)(Cl)Cl (stereo not drawn) [Example 1, 1,1,1-Trichloro-3-methylaminopropan-2-ol]	55.3%	12.1%	30.4%	40.6 μM/ml

Same assay, conditions: Ovis aries, 20 h, read-out: VFA production % difference from control, Acetate

SMILES	percent change in VFA production versus control at 10 ppm	percent change in VFA production versus control at 5 µg/mL
OC(CN1CCCC1)C(Cl)(Cl)Cl (stereo not drawn) [Example 7, 1,1,1-Trichloro-3-(N-pyrrolidino)propan-2-ol]	-27.6%	–
OC(CN1CCCCC1)C(Cl)(Cl)Cl (stereo not drawn) [Example 6, 1,1,1-Trichloro-3-(N-piperidino)propan-2-ol]	-25.8%	-19.1%
CN(C)CC(O)C(Cl)(Cl)Cl (stereo not drawn) [Example 2, 1,1,1-Trichloro-3-dimethylaminopropan-2-ol]	-35.5%	–
CN1CCN(CC(O)C(Cl)(Cl)Cl)CC1 (stereo not drawn) [Compound A, reference compound]	-35%	–
CCN(CC)CC(O)C(Cl)(Cl)Cl (stereo not drawn) [Example 3, 1,1,1-Trichloro-3-diethylaminopropan-2-ol]	-42.3%	–
OC(CNC1CCCCC1)C(Cl)(Cl)Cl (stereo not drawn) [Example 5, 1,1,1-Trichloro-3-cyclohexylaminopropan-2-ol]	-31.1%	–
CC(C)CNCC(O)C(Cl)(Cl)Cl (stereo not drawn) [Example 4, 1,1,1-Trichloro-3-isobutylaminopropan-2-ol]	-45.7%	–
CNCC(O)C(Cl)(Cl)Cl (stereo not drawn) [Example 1, 1,1,1-Trichloro-3-methylaminopropan-2-ol]	-44.7%	–

Same assay, conditions: Ovis aries, 20 h, read-out: VFA production % difference from control, Butyrate

SMILES	percent change in VFA production versus control at 5 µg/mL	percent change in VFA production versus control at 10 ppm
OC(CN1CCCCC1)C(Cl)(Cl)Cl (stereo not drawn) [Example 6, 1,1,1-Trichloro-3-(N-piperidino)propan-2-ol]	27.7%	7.9%
CN(C)CC(O)C(Cl)(Cl)Cl (stereo not drawn) [Example 2, 1,1,1-Trichloro-3-dimethylaminopropan-2-ol]	–	-18.1%
CN1CCN(CC(O)C(Cl)(Cl)Cl)CC1 (stereo not drawn) [Compound A, reference compound]	–	9%
CCN(CC)CC(O)C(Cl)(Cl)Cl (stereo not drawn) [Example 3, 1,1,1-Trichloro-3-diethylaminopropan-2-ol]	–	-20%
OC(CNC1CCCCC1)C(Cl)(Cl)Cl (stereo not drawn) [Example 5, 1,1,1-Trichloro-3-cyclohexylaminopropan-2-ol]	–	14.6%
CC(C)CNCC(O)C(Cl)(Cl)Cl (stereo not drawn) [Example 4, 1,1,1-Trichloro-3-isobutylaminopropan-2-ol]	–	-29%
CNCC(O)C(Cl)(Cl)Cl (stereo not drawn) [Example 1, 1,1,1-Trichloro-3-methylaminopropan-2-ol]	–	-29.7%

Same assay, conditions: Ovis aries, 20 h, read-out: VFA production % difference from control, Propionate

SMILES	percent change in VFA production versus control at 10 ppm	percent change in VFA production versus control at 5 µg/mL
OC(CN1CCCC1)C(Cl)(Cl)Cl (stereo not drawn) [Example 7, 1,1,1-Trichloro-3-(N-pyrrolidino)propan-2-ol]	30.5%	–
OC(CN1CCCCC1)C(Cl)(Cl)Cl (stereo not drawn) [Example 6, 1,1,1-Trichloro-3-(N-piperidino)propan-2-ol]	34.1%	23%
CN(C)CC(O)C(Cl)(Cl)Cl (stereo not drawn) [Example 2, 1,1,1-Trichloro-3-dimethylaminopropan-2-ol]	31.5%	–
CN1CCN(CC(O)C(Cl)(Cl)Cl)CC1 (stereo not drawn) [Compound A, reference compound]	19.9%	–
CCN(CC)CC(O)C(Cl)(Cl)Cl (stereo not drawn) [Example 3, 1,1,1-Trichloro-3-diethylaminopropan-2-ol]	26.8%	–
OC(CNC1CCCCC1)C(Cl)(Cl)Cl (stereo not drawn) [Example 5, 1,1,1-Trichloro-3-cyclohexylaminopropan-2-ol]	32.5%	–
CC(C)CNCC(O)C(Cl)(Cl)Cl (stereo not drawn) [Example 4, 1,1,1-Trichloro-3-isobutylaminopropan-2-ol]	18.8%	–
CNCC(O)C(Cl)(Cl)Cl (stereo not drawn) [Example 1, 1,1,1-Trichloro-3-methylaminopropan-2-ol]	22.3%	–

Same assay, conditions: Ovis aries, 20 h, read-out: VFA production % difference from control, TVFA

SMILES	percent change in VFA production versus control at 10 ppm	percent change in VFA production versus control at 5 µg/mL
OC(CN1CCCC1)C(Cl)(Cl)Cl (stereo not drawn) [Example 7, 1,1,1-Trichloro-3-(N-pyrrolidino)propan-2-ol]	-10.4%	–
OC(CN1CCCCC1)C(Cl)(Cl)Cl (stereo not drawn) [Example 6, 1,1,1-Trichloro-3-(N-piperidino)propan-2-ol]	-8.3%	-7.1%
CN(C)CC(O)C(Cl)(Cl)Cl (stereo not drawn) [Example 2, 1,1,1-Trichloro-3-dimethylaminopropan-2-ol]	-18.4%	–
CN1CCN(CC(O)C(Cl)(Cl)Cl)CC1 (stereo not drawn) [Compound A, reference compound]	-22.6%	–
CCN(CC)CC(O)C(Cl)(Cl)Cl (stereo not drawn) [Example 3, 1,1,1-Trichloro-3-diethylaminopropan-2-ol]	-23%	–
OC(CNC1CCCCC1)C(Cl)(Cl)Cl (stereo not drawn) [Example 5, 1,1,1-Trichloro-3-cyclohexylaminopropan-2-ol]	-11.8%	–
CC(C)CNCC(O)C(Cl)(Cl)Cl (stereo not drawn) [Example 4, 1,1,1-Trichloro-3-isobutylaminopropan-2-ol]	-29.4%	–
CNCC(O)C(Cl)(Cl)Cl (stereo not drawn) [Example 1, 1,1,1-Trichloro-3-methylaminopropan-2-ol]	-28.2%	–

Same assay, conditions: Ovis aries; 10 ppm/flask, 20 h, 39° C

SMILES	inhibition at 10 ppm
OC(CN1CCCC1)C(Cl)(Cl)Cl (stereo not drawn) [Example 7, 1,1,1-Trichloro-3-(N-pyrrolidino)propan-2-ol]	100%
OC(CN1CCCCC1)C(Cl)(Cl)Cl (stereo not drawn) [Example 6, 1,1,1-Trichloro-3-(N-piperidino)propan-2-ol]	100%
CN(C)CC(O)C(Cl)(Cl)Cl (stereo not drawn) [Example 2, 1,1,1-Trichloro-3-dimethylaminopropan-2-ol]	100%
CN1CCN(CC(O)C(Cl)(Cl)Cl)CC1 (stereo not drawn) [Compound A, reference compound]	50.6%
CCN(CC)CC(O)C(Cl)(Cl)Cl (stereo not drawn) [Example 3, 1,1,1-Trichloro-3-diethylaminopropan-2-ol]	100%
OC(CNC1CCCCC1)C(Cl)(Cl)Cl (stereo not drawn) [Example 5, 1,1,1-Trichloro-3-cyclohexylaminopropan-2-ol]	100%
CC(C)CNCC(O)C(Cl)(Cl)Cl (stereo not drawn) [Example 4, 1,1,1-Trichloro-3-isobutylaminopropan-2-ol]	100%
CNCC(O)C(Cl)(Cl)Cl (stereo not drawn) [Example 1, 1,1,1-Trichloro-3-methylaminopropan-2-ol]	100%

Same assay, conditions: Ovis aries; tested at 5 ppm level, 20 h, 39° C

SMILES	inhibition at 5 µg/mL
OC(CN1CCCCC1)C(Cl)(Cl)Cl (stereo not drawn) [Example 6, 1,1,1-Trichloro-3-(N-piperidino)propan-2-ol]	32.2%

Same assay, conditions: tested at 5 ppm level, 20 h, 39° C, headspace gas

SMILES	% hydrogen present
OC(CN1CCCCC1)C(Cl)(Cl)Cl (stereo not drawn) [Example 6, 1,1,1-Trichloro-3-(N-piperidino)propan-2-ol]	0.09%
